Measured values as given in patent US20150315179A1, “COMPOUNDS AND METHODS OF TREATING NEUROLOGICAL DISORDERS” (Torrey Pines Institute For Molecular Studies, priority 2014, published 2015).

Key:
[1] = system: sAPPα; test: Mouse brain lysate immunoblot, sAPPα; format: in vivo; conditions: i.p. 100 mg/kg for 5 days, brain lysates
Experimental: FIGS. 9.2A and B illustrate that THPI-244 increases TrkA and sAPPα in the mouse brain. FIG. 9.2A illustrates that THPI-244 was administered to mice by i.p. injections at 100 mg/kg body weight for 5 days and the brain lysates were subjected to immunoblots. Specific antibodies were used to detect TrkA and sAPPα. […] Data are mean±SEM, n=3*, p<0.05, ***, p<0.001.

[2] = target: T1, TrkA dimer (Homo sapiens, UniProt P04629); test: TrkA dimerization immunoblot, NT2 cells; format: cell-based; conditions: 48 h
T1 construct: endogenous in cells; host or cells: NT2 cells (stably expressing APP751; no TrkA transfection described)
T1 sequence (P04629 33-796): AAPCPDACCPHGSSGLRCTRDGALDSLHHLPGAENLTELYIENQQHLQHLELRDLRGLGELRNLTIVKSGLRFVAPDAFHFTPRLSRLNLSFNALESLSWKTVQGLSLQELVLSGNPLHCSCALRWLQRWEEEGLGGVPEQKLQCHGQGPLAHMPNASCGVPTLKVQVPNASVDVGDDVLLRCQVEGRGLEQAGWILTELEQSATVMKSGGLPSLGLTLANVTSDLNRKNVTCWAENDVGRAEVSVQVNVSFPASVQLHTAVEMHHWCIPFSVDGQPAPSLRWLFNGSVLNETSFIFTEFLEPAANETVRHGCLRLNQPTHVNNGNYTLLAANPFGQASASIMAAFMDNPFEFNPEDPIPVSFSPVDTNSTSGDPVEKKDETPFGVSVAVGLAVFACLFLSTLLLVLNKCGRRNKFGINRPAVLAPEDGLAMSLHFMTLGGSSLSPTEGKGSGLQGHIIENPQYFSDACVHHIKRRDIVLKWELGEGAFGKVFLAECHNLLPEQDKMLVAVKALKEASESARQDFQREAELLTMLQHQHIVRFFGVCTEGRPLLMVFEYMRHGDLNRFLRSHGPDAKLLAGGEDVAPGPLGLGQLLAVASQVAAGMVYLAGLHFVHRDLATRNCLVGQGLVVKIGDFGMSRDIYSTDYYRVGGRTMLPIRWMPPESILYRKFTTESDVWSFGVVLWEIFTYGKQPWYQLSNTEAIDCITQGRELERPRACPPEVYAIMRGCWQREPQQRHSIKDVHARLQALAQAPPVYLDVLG
Experimental: FIGS. 9.4A and B illustrates that THPI-244 increases TrkA dimerization in NT2 cells. FIG. 9.4A illustrates that NT2 cells were treated with THPI-244 at 100 and 200 nM for 48 h and the cell lysates were subjected to immunoblots. TrkA monomer was detected at 140 kDa and dimer at 280 kDA. […] Data are mean±SEM, n=4, **, p<0.01, ***, p<0.001 by ANOVA.

[3] = system: human primary neurons; test: Neurite outgrowth, Sholl analysis of dendritic intersections; format: cell-based; conditions: 2DIV until 6DIV
Source text: (4). The most important property of THPI-244 is its ability to increase neurite outgrowth and dendritic intersections in human primary neurons. Since both TrkA and sAPPα promote neuron growth and provide trophic support, we tested whether treatment of human primary neurons with THPI-244 induces neurite outgrowth. […] Considering an enormous potential for such an excellent results in human neurons, we did systematic analysis by also treating neurons in the presence of TrkA inhibitor to verify if the increased neurite outgrowth is mediated by TrkA receptor. Sholl analysis using ImageJ software of individual neurons (at least 30 per group) immunostained for MAP2 antibody confirmed our initial findings. […] This confirmed that THPI-244 increases TrkA protein levels which has vital role in regulating neuritic outgrowth.

[4] = system: TrkA; test: TrkA increase by THPI-244 analogs; format: cell-based
Source text: The following table illustrates Chemical structures and properties of THPI-244 analogs selected out of 37 analogs, and each have significant sAPPα increasing activity. Toxicity is the minimum dose for toxicity.

[5] = system: fibroblasts derived from AD patients; test: MTT cytotoxicity, AD fibroblasts; format: cell-based, human; conditions: 24 h exposure
Source text: (4). Toxicity is another crucial limitation for successful drug development as evidenced by recent failure of γ-secretase inhibitors at the clinical trials due to cytotoxicity (Cole, S L and Vassar, R, 2007, Mol. Neurodeg. 2, 22-47; Doody R S, et al. 2013. N. Eng. J. Med. 369, 341-350). Therefore we measured cytotoxicity by very sensitive MTT assay as described previously (Hayes, C D., et al. 2013, BMC Medicine. 26, 11.81; 23; Hayes, C D., et al., 2012, PLoS One 7, e45841) in human primary neurons obtained from a commercial source (cat #1520, ScienCell, Carlsbad, Calif., USA) and fibroblasts derived directly from A D patients (cat# AG06263C, Coriell Institute Cell repository supported by NINDS, NIH). […] We directly used human neurons for toxicity studies so as to reduce the chances of future failure at a later stage due to toxicity.

[6] = system: Aβ42 levels, NT2 cells stably expressing APP751; test: Aβ42 ELISA, NT2 stable cells; format: cell-based, human
Experimental: (5). To confirm the effect of THPI-244 on sAPPα levels in a neuronal cell line and by a tertiary assay, we exposed human Neuron-committed Teratocarcinoma cell line (NT2) stably expressing human APP751 to different concentrations of THPI-244 for 24 h and compared with that of Bryostatin, a classical activator of PKC known to stimulate sAPPα release. […] Levels of sAPPα were measured by ELISA using commercially available kit (cat #27734, IBL-America, Minneapolis, Minn., USA). […] Similar biphasic effect of Bryostatin was confirmed for Aβ42 also, measured again in NT2 stable cells by ELISA (cat # KHB3441, Life Technologies, Grand Island, N.Y., USA). Consistent with sAPPα, THPI-244 decreased Aβ42 levels dose-dependently starting from 50 nM (28%, p<0.05) to 2000 nM (64%, p<0.001) (n=4 independent experiments) (FIG. 1.7). Thus THPI-244 increased non-amyloidogenic processing of APP in NT2 cells.

[7] = Brain levels after i.p. injection (LC-MS); format: in vivo, mouse
Experimental: (3). Since blood brain barrier (BBB) is the main obstacle for drug development for any CNS disorders, we first wanted to verify whether compound THPI-244 enters the brain. We followed protocols exactly as published previously from our laboratory (Hayes, C D et al., 2013, BMC Med. 26, 11.81). […] We generated a standard graph (FIG. 1.4 (middle)) to be used in the quantitation of THPI-244 in the brain after intraperitoneal (i.p.) injections at 0.2 mg/kg body weight.

[8] = target: TrkA receptors (Homo sapiens, UniProt P04629); test: Octet Red label-free binding; conditions: biotinylated TrkA on SSA biosensors
Chain of TrkA receptors (P04629 33-796): as above
Experimental: FIGS. 9.1A and B illustrate that THPI-244 directly binds TrkA receptors as determined by label-free, real-time Octet Red detection system. FIG. 9.1A illustrates that biotinylated TrkA was loaded on to super-streptavidin (SSA) biosensors and after obtaining the baseline, were incubated with THPI-244 which dose-dependently bound TrkA receptors (Association). Incubation with kinetics buffer rapidly dissociated the binding.

[9] = i.p. 0.2 mg/kg body weight, mouse

For O=C(Cc1ccccc1)N[C@H](CNc1nc(CN2CCN(C(=O)Cc3ccccc3)CC2)cs1)c1ccccc1 [THPI-244], the “increase of sAPPα” value [1] was 89%, the “increase of TrkA dimer” value ([2]; 100 nM) was 82% and the “increase of TrkA dimer” value ([2]; 200 nM) was 134%. The “number of dendritic intersections” value ([3]; Sholl analysis) was “highly significant increase”, the “number of dendritic intersections” value ([3]; THPI-244 with TrkA inhibitor) was “almost completely prevented the increased intersections” and the “% TrkA ↑” value [4] was 99%. The “concentration from which cytotoxicity is significant” value [5] was 50 µM, the “decrease of Aβ42 levels” value ([6]; 50 nM) was 28% and the “decrease of Aβ42 levels” value ([6]; 2000 nM) was 64%. For the same compound, the “concentration from which Aβ42 decrease is significant” value ([6]; ELISA) was 50 nM, the “amount remaining in the brain at 240 min” value [7, 9] was “negligible amount” and the “time to maximum levels in the brain” value [7, 9] was ≤ 5 min. For the same compound, the blood-brain barrier passage ([7]; i.p. administration, mouse brain) was “passes through the blood-brain barrier” and the Kd [8] was 5.2 µM.
